Measured values as given in ChEMBL document CHEMBL3734695, “Cytotoxic potential of dispirooxindolo/acenaphthoquino andrographolide derivatives against MCF-7 cell line” (Medchemcomm, 2015).
Active and inactive are the calls of the source. No cut-off for these calls is given here.

Experiments:
MCF7 [1] = test: Induction of apoptosis in human MCF7 cells assessed as increase in cleaved caspase-9 level at IC50 after 48 hrs by western blot analysis; assay type: functional, cell-based
MCF7 [2] = test: Cytotoxicity against human MCF7 cells assessed as growth inhibition after 72 hrs by MTT assay; assay type: functional, cell-based; settings: MCF7, 72 h
MCF7 [3] = test: Induction of apoptosis in human MCF7 cells assessed as progressive cell detachment at IC50 after 24 hrs by inverted phase contrast microscopic analysis; assay type: functional, cell-based
MCF7 [4] = test: Induction of apoptosis in human MCF7 cells assessed as rounded cells at IC50 after 24 hrs by inverted phase contrast microscopic analysis; assay type: functional, cell-based
MCF7 [5] = test: Induction of apoptosis in human MCF7 cells assessed as dead cells at IC50 after 24 hrs by annexin V-FITC/propidium iodide staining based flow cytometric analysis (reference value: 0.2%); assay type: functional
MCF7 [6] = test: Induction of apoptosis in human MCF7 cells assessed as late apoptotic cells at IC50 after 24 hrs by annexin V-FITC/propidium iodide staining based flow cytometric analysis (reference value: 0.0%); assay type: functional
MCF7 [7] = test: Induction of apoptosis in human MCF7 cells assessed as viable cells at IC50 after 24 hrs by annexin V-FITC/propidium iodide staining based flow cytometric analysis (reference value: 99.8%); assay type: functional
MCF7 [8] = test: Induction of apoptosis in human MCF7 cells assessed as early apoptotic cells at IC50 after 24 hrs by annexin V-FITC/propidium iodide staining based flow cytometric analysis (reference value: 0.1%); assay type: functional
MCF7 [9] = test: Induction of apoptosis in human MCF7 cells assessed as dead cells at IC50 after 48 hrs by annexin V-FITC/propidium iodide staining based flow cytometric analysis (reference value: 0.2%); assay type: functional
MCF7 [10] = test: Induction of apoptosis in human MCF7 cells assessed as late apoptotic cells at IC50 after 48 hrs by annexin V-FITC/propidium iodide staining based flow cytometric analysis (reference value: 0.0%); assay type: functional
MCF7 [11] = test: Induction of apoptosis in human MCF7 cells assessed as viable cells at IC50 after 48 hrs by annexin V-FITC/propidium iodide staining based flow cytometric analysis (reference value: 99.8%); assay type: functional
MCF7 [12] = test: Induction of apoptosis in human MCF7 cells assessed as early apoptotic cells at IC50 after 48 hrs by annexin V-FITC/propidium iodide staining based flow cytometric analysis (reference value: 0.1%); assay type: functional
MCF7 [13] = test: Induction of apoptosis in human MCF7 cells assessed as depolarized mitochondrial membrane at IC50 after 24 hrs by JC-1 dye based FACS analysis (reference value: 10%); assay type: functional
MCF7 [14] = test: Induction of apoptosis in human MCF7 cells assessed as polarized mitochondrial membrane at IC50 after 24 hrs by JC-1 dye based FACS analysis (reference value: 90%); assay type: functional
MCF7 [15] = test: Induction of apoptosis in human MCF7 cells assessed as depolarized mitochondrial membrane at IC50 after 48 hrs by JC-1 dye based FACS analysis (reference value: 10%); assay type: functional
MCF7 [16] = test: Induction of apoptosis in human MCF7 cells assessed as polarized mitochondrial membrane at IC50 after 48 hrs by JC-1 dye based FACS analysis (reference value: 90%); assay type: functional
MCF7 [17] = test: Induction of ROS generation in human MCF7 cells at IC50 after 24 hrs by CM-H2DCFDA staining based flow cytometric analysis (reference value: 12.6%); assay type: functional
MCF7 [18] = test: Induction of apoptosis in human MCF7 cells assessed as increase in cleaved caspase-7 level at IC50 after 48 hrs by western blot analysis; assay type: functional, cell-based
MCF7 [19] = test: Induction of apoptosis in human MCF7 cells assessed as increase in cleaved PARP-1 level at IC50 after 48 hrs by western blot analysis; assay type: functional, cell-based
MCF7 [20] = test: Cell cycle arrest in human MCF7 cells assessed as accumulation at G0/G1 phase at IC50 after 24 hrs by propidium iodide staining based flow cytometric analysis (reference value: 59.5%); assay type: functional
MCF7 [21] = test: Cell cycle arrest in human MCF7 cells assessed as accumulation at G2/M phase at IC50 after 24 hrs by propidium iodide staining based flow cytometric analysis (reference value: 24.2%); assay type: functional
MCF7 [22] = test: Cell cycle arrest in human MCF7 cells assessed as accumulation at S phase at IC50 after 24 hrs by propidium iodide staining based flow cytometric analysis (reference value: 16.3%); assay type: functional
MCF7 [23] = test: Cell cycle arrest in human MCF7 cells assessed as accumulation at G0/G1 phase at IC50 after 48 hrs by propidium iodide staining based flow cytometric analysis (reference value: 59.5%); assay type: functional
MCF7 [24] = test: Cell cycle arrest in human MCF7 cells assessed as accumulation at G2/M phase at IC50 after 48 hrs by propidium iodide staining based flow cytometric analysis (reference value: 24.2%); assay type: functional
MCF7 [25] = test: Cell cycle arrest in human MCF7 cells assessed as accumulation at S phase at IC50 after 48 hrs by propidium iodide staining based flow cytometric analysis (reference value: 16.3%); assay type: functional
MCF7 [26] = test: Induction of apoptosis in human MCF7 cells assessed as ratio of depolarized to polarized mitochondrial membrane at IC50 by JC-1 dye based FACS analysis; assay type: functional, cell-based; settings: TDE = time-dependent effect

Compound | Activity (MCF7 [1]) | IC50 (MCF7 [2]) [µM] | Activity (MCF7 [3]) | Activity (MCF7 [4]) | Activity (MCF7 [5]) [%] | Activity (MCF7 [6]) [%] | Activity (MCF7 [7]) [%] | Activity (MCF7 [8]) [%] | Activity (MCF7 [9]) [%] | Activity (MCF7 [10]) [%] | Activity (MCF7 [11]) [%] | Activity (MCF7 [12]) [%] | Activity (MCF7 [13]) [%] | Activity (MCF7 [14]) [%] | Activity (MCF7 [15]) [%] | Activity (MCF7 [16]) [%] | Activity (MCF7 [17]) [%] | Activity (MCF7 [18]) | Activity (MCF7 [19]) | Activity (MCF7 [20]) [%] | also measured
C=C1CC[C@@H]2[C@](C)(CO)[C@H](O)CC[C@@]2(C)[C@@H]1CC1CN(Cc2ccccc2)[C@@]2(C(=O)Nc3ccc(Cl)cc32)[C@]12C(=O)OC[C@H]2O (some centres not stated) | Active | 12.7 | Active | Active | 0.9 | 0.7 | 71.5 | 28.5 | 0.2 | 7.1 | 7.9 | 84.8 | 62.3 | 37.7 | 89.8 | 10.2 | 99.4 | Active | Active | 42.7 | Activity (MCF7 [21]): 29.5%; Activity (MCF7 [22]): 27.8%; Activity (MCF7 [23]): 42.9%; Activity (MCF7 [24]): 20.2%; Activity (MCF7 [25]): 35.8%; Activity (MCF7 [26]): tde
C=C1CC[C@@H]2[C@](C)(CO)[C@H](O)CC[C@@]2(C)[C@@H]1CC1CN(Cc2ccccc2)[C@@]2(C(=O)Nc3ccc(C)cc32)[C@]12C(=O)OC[C@H]2O (some centres not stated) | Active | 10.9 | Active | Active | 0.8 | 0.6 | 79.2 | 19.7 | 2.2 | 1.5 | 77.8 | 18.5 | 79 | 21 | 88.9 | 11.1 | 99.9 | Active | Active | 42.4 | Activity (MCF7 [21]): 29.1%; Activity (MCF7 [22]): 28.5%; Activity (MCF7 [23]): 37.9%; Activity (MCF7 [24]): 19.4%; Activity (MCF7 [25]): 41.7%; Activity (MCF7 [26]): tde
C=C1CC[C@@H]2[C@](C)(CO)[C@H](O)CC[C@@]2(C)[C@@H]1CC1CN(Cc2ccccc2)[C@@]2(C(=O)Nc3c(F)cccc32)[C@]12C(=O)OC[C@H]2O (some centres not stated) | Active | 13.7 | Active | Active | 0.6 | 0.4 | 76.3 | 22.7 | 1.4 | 4.1 | 36.7 | 57.8 | 50 | 50.1 | 97.5 | 2.5 | 96.2 | Active | Active | 46.6 | Activity (MCF7 [21]): 22.2%; Activity (MCF7 [22]): 31.1%; Activity (MCF7 [23]): 33.3%; Activity (MCF7 [24]): 17.4%; Activity (MCF7 [25]): 48.1%; Activity (MCF7 [26]): tde
C=C1CC[C@@H]2[C@](C)(CO)[C@H](O)CC[C@@]2(C)[C@@H]1CC1CN(Cc2ccccc2)[C@@]2(C(=O)c3cccc4cccc2c34)[C@]12C(=O)OC[C@H]2O (some centres not stated) | Active | 8.9 | Active | Active | 0.3 | 0.8 | 56.5 | 42.4 | 0 | 4.6 | 0.4 | 95 | 83 | 17 | 96.4 | 3.6 | 97.7 | Active | Active | 46.3 | Activity (MCF7 [21]): 29.8%; Activity (MCF7 [22]): 23.9%; Activity (MCF7 [23]): 32.3%; Activity (MCF7 [24]): 27.5%; Activity (MCF7 [25]): 38.6%; Activity (MCF7 [26]): tde
C=C1CC[C@@H]2[C@](C)(CO)[C@H](O)CC[C@@]2(C)[C@@H]1CC1CN(Cc2ccccc2)[C@@]2(C(=O)Nc3ccc(Br)cc32)[C@]12C(=O)OC[C@H]2O (some centres not stated) | Active | 12.8 | Active | Active | 0.9 | 2 | 61.4 | 35.7 | 0 | 4.4 | 1.7 | 93.9 | 46.1 | 54.1 | 93.1 | 6.4 | 98.1 | Active | Active | 40.3 | Activity (MCF7 [21]): 31.1%; Activity (MCF7 [22]): 28.5%; Activity (MCF7 [23]): 34.2%; Activity (MCF7 [24]): 22%; Activity (MCF7 [25]): 43%; Activity (MCF7 [26]): tde
N#CC(C#N)=NNc1cccc(Cl)c1 [CARBONYL CYANIDE M-CHLOROPHENYLHYDRAZONE] |  |  |  |  |  |  |  |  |  |  |  |  | 100 | 0 |  |  |  |  |  |  | 
